Data from PubChem BioAssay (NCI).
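Cultured in 96-well plates, cells were exposed to test compound for 48 hours across five concentrations. Definition used: TGI = concentration required for complete inhibition of growth.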

Key:
Experiment in all cases: DTP human tumour cell line panel, 48 h
[1] = system: OVCAR-3 ovarian
[2] = system: NCI-H522 lung
[3] = system: MOLT-4 leukemia
[4] = system: SNB-75 CNS
[5] = system: M14 melanoma
[6] = system: SK-MEL-28 melanoma
[7] = system: K-562 leukemia
[8] = system: OVCAR-8 ovarian
[9] = system: MALME-3M melanoma
[10] = system: COLO 205 colon
[11] = system: TK-10 renal
[12] = system: SK-MEL-5 melanoma
[13] = system: SF-268 CNS
[14] = system: HL-60(TB) leukemia
[15] = system: BT-549 breast
[16] = system: SW-620 colon
[17] = system: NCI/ADR-RES ovarian
[18] = system: CCRF-CEM leukemia
[19] = system: CAKI-1 renal
[20] = system: SK-MEL-2 melanoma
[21] = system: HS 578T breast
[22] = system: U251 CNS
[23] = system: MCF7 breast
[24] = system: MDA-MB-435
[25] = system: KM12 colon
[26] = system: NCI-H460 lung
[27] = system: HCT-116 colon
[28] = system: SK-OV-3 ovarian
[29] = system: DU-145 prostate
[30] = system: SNB-19 CNS
[31] = system: MDA-N
[32] = system: HT29 colon
[33] = system: NCI-H226 lung
[34] = system: IGROV1 ovarian
[35] = system: UACC-62 melanoma
[36] = system: SR leukemia
[37] = system: EKVX NSCLC
[38] = system: HOP-92 NSCLC
[39] = system: PC-3 prostate
[40] = system: A549 NSCLC
[41] = system: LOX IMVI melanoma
[42] = system: HOP-62 NSCLC
[43] = system: NCI-H23 lung
[44] = system: UO-31 renal
[45] = system: ACHN renal
[46] = system: 786-0 renal
[47] = system: OVCAR-4 ovarian
[48] = system: RPMI-8226 leukemia
[49] = system: SF-295 CNS
[50] = system: HCT-15 colon
[51] = system: UACC-257 melanoma
[52] = system: T-47D breast
[53] = system: SN12C renal
[54] = system: OVCAR-5 ovarian
[55] = system: A498 renal
[56] = system: RXF 393 renal
[57] = system: HCC-2998 colon
[58] = system: SF-539 CNS

`c1ccc(N=C(Nc2ccccc2)N2CCCC2)cc1` gave a TGI [1] of over 100 µM, a TGI [2] of over 100 µM and a TGI [3] of over 100 µM. The TGI [4] was over 100 µM, the TGI [5] was over 100 µM and the TGI [6] was over 100 µM. The TGI [7] was over 100 µM, the TGI [8] was over 100 µM and the TGI [9] was over 100 µM. The TGI [10] was over 100 µM, the TGI [11] was over 100 µM and the TGI [12] was over 100 µM. It also gave a TGI [13] of over 100 µM, a TGI [14] of over 100 µM and a TGI [15] of over 100 µM. For the same molecule, the TGI [16] was over 100 µM, the TGI [17] was over 100 µM and the TGI [18] was over 100 µM. It also gave a TGI [19] of over 100 µM, a TGI [20] of over 100 µM and a TGI [21] of over 100 µM. It also gave a TGI [22] of over 100 µM, a TGI [23] of over 100 µM and a TGI [24] of over 100 µM. For the same molecule, the TGI [25] was over 100 µM, the TGI [26] was over 100 µM and the TGI [27] was over 100 µM. The TGI [28] was over 100 µM, the TGI [29] was over 100 µM and the TGI [30] was over 100 µM. For the same molecule, the TGI [31] was over 100 µM, the TGI [32] was over 100 µM and the TGI [33] was over 100 µM. It also gave a TGI [34] of over 100 µM, a TGI [35] of over 100 µM and a TGI [36] of over 100 µM. The TGI [37] was over 100 µM, the TGI [38] was over 100 µM and the TGI [39] was over 100 µM. The TGI [40] was over 100 µM, the TGI [41] was over 100 µM and the TGI [42] was over 100 µM. For the same molecule, the TGI [43] was over 100 µM, the TGI [44] was over 100 µM and the TGI [45] was over 100 µM. It also gave a TGI [46] of over 100 µM, a TGI [47] of over 100 µM and a TGI [48] of over 100 µM. For the same molecule, the TGI [49] was over 100 µM, the TGI [50] was over 100 µM and the TGI [51] was over 100 µM. The TGI [52] was over 100 µM, the TGI [53] was over 100 µM and the TGI [54] was over 100 µM.
Work on `C1CCCCC2(CCCCCCCCC3(CCC1)OCCO3)OCCO2` yielded a TGI [1] of over 100 µM, a TGI [2] of over 100 µM and a TGI [4] of over 100 µM. It also gave a TGI [55] of over 100 µM, a TGI [5] of over 100 µM and a TGI [6] of over 100 µM. For the same molecule, the TGI [7] was over 100 µM, the TGI [8] was over 100 µM and the TGI [56] was over 100 µM. For the same molecule, the TGI [9] was over 100 µM, the TGI [10] was over 100 µM and the TGI [11] was over 100 µM. For the same molecule, the TGI [12] was over 100 µM, the TGI [13] was over 100 µM and the TGI [14] was over 100 µM. It also gave a TGI [16] of over 100 µM, a TGI [17] of over 100 µM and a TGI [19] of over 100 µM. The TGI [20] was over 100 µM, the TGI [21] was over 100 µM and the TGI [22] was over 100 µM. The TGI [23] was over 100 µM, the TGI [24] was over 100 µM and the TGI [25] was over 100 µM. The TGI [26] was over 100 µM, the TGI [27] was over 100 µM and the TGI [28] was over 100 µM. It also gave a TGI [29] of over 100 µM, a TGI [30] of over 100 µM and a TGI [31] of over 100 µM. For the same molecule, the TGI [32] was over 100 µM, the TGI [33] was over 100 µM and the TGI [34] was over 100 µM. For the same molecule, the TGI [35] was over 100 µM, the TGI [36] was over 100 µM and the TGI [37] was over 100 µM. For the same molecule, the TGI [38] was over 100 µM, the TGI [39] was over 100 µM and the TGI [57] was over 100 µM. For the same molecule, the TGI [40] was over 100 µM, the TGI [41] was over 100 µM and the TGI [42] was over 100 µM. The TGI [43] was over 100 µM, the TGI [44] was 3.64 µM and the TGI [45] was over 100 µM. It also gave a TGI [46] of over 100 µM, a TGI [47] of over 100 µM and a TGI [49] of over 100 µM. For the same molecule, the TGI [50] was over 100 µM, the TGI [51] was over 100 µM and the TGI [52] was over 100 µM. The TGI [53] was over 100 µM, the TGI [58] was over 100 µM and the TGI [54] was over 100 µM.
